Laboratory results from patent US20120010179A1, “Methods of using a thiazole derivative” (priority 2006, published 2012).

System: patients with COPD
Assay: Pulmonary function tests (spirometry FEV1, FVC), tetomilast with inhaled albuterol, crossover study (Example 1)
Type: in vivo, human
Conditions: for Estimated Treatment Effect, change from baseline in FEV1 (tetomilast versus placebo) / Estimated Treatment Effect, change from baseline in FVC (tetomilast versus placebo) / LS Mean change from baseline in FEV1 (repeated measures ANOVA) / LS Mean change from baseline in FVC (repeated measures ANOVA) / Mean (SD) change from baseline in FEV1 / Mean (SD) change from baseline in FVC: Baseline (Day 0); for Estimated Treatment Effect, change from baseline in FEV1 (tetomilast versus placebo) / Estimated Treatment Effect, change from baseline in FVC (tetomilast versus placebo): both with inhaled albuterol; for LS Mean change from baseline in FEV1 (repeated measures ANOVA) / LS Mean change from baseline in FVC (repeated measures ANOVA) / Mean (SD) change from baseline in FEV1 / Mean (SD) change from baseline in FVC: tetomilast 50 mg QD + inhaled albuterol
Procedure: Pulmonary function tests were conducted throughout the study to monitor the subjects' respiratory status. Flow volume curves were collected via spirometry. Combivent® (Boehringer Ingleheim Pharmaceuticals, Inc., Ridgefield Conn.), which was used for short-acting rescues as needed throughout the studies described below, was withheld for 6 hours prior to any spirometric testing. Spirometry testing was performed at screening, baseline (Day 0), and at specific times during the treatment period. Each subject could have up to 5 spirometric readings at any study time point. Spirometric readings were performed using equipment from the central provider, Quantum Research, Inc. (Louisville, Colo.). All spirometry readings were recorded and sent to Quantum Research, Inc. for analysis
For the spirometric readings, the best effort was reported as follows. The highest acceptable forced expiratory volume in one second (FEV1) value was selected as the “best” of the given test session. If two or more FEV1 values were tied as highest, the sum of FEV1 and forced vital capacity (FVC) for those efforts was used. If both conditions were equal between the two efforts, the values reported were taken from the effort that occurred first, chronologically, based on date and time of the effort.
This study was a multicenter, randomized, double-blind, placebo-controlled, crossover, multiple dose, outpatient study in 27 patients with COPD. All subjects underwent a 28-day washout from inhaled corticosteroids and/or long-acting bronchodilators and/or continuous oxygen therapy (≧16 hours per day) and a 7-day washout from oral beta2-agonists and/or oral theophylline salts prior to baseline. Randomized subjects received an 8-day administration of oral placebo or tetomilast 50 mg oral dose (2×25 mg tablets) once daily (QD). On study Day 8, four consecutive doses of inhaled albuterol (90 μg albuterol base per puff) were given via a metered dose inhaler (MDI) and holding chamber (Ventolin®, GlaxoSmithKline, Research Triangle Park, N.C.), one dose every 30 minutes over the course of 90 minutes at doses of 90 μg+90 μg+180 μg+360 μg for a total dose of 720 μg (albuterol base) or 8 puffs.
Subjects entered a 7-day washout period (study days 9 through 15) and were then crossed over to the alternate treatment arm (placebo or tetomilast 50 mg oral dose). On study [0105] Day 23, the inhaled albuterol multiple dosing was repeated.
On Days 1-6 and 17-21, subjects were instructed to take their oral study medication (placebo or tetomilast 50 mg) QD with 8 ounces of water immediately before breakfast. Subjects assigned to the placebo arm received two placebo tablets QD. On Days 7, 8, 16, 22, and 23, subjects took their oral medication (placebo or tetomilast 50 mg) at the clinic in the presence of the study staff.
Combivent® inhalation aerosol use was allowed for short-acting rescue as needed throughout the study except on study days where PK samples were collected, on days when the multiple doses of inhaled albuterol were administered in the clinic, and/or on days when spirometry testing was performed. On all study days where PK samples were collected, Combivent® was withheld 6 hours prior to the PK draw. Additionally, on study Days 8 and 23 (when the multiple doses of inhaled albuterol were administered in the clinic), Combivent® was withheld 6 hours prior to PK assessment and throughout the duration of the clinic visit. Combivent® was withheld for six hours prior to spirometry testing. The recommended dose of Combivent® Inhalation Aerosol is two inhalations four times a day. In this study, subjects were permitted to take additional inhalations as required; however, the total number of inhalations was not to exceed 12 in 24 hours. Subjects were to “test-spray” three times before using for the first time and in cases where the aerosol had not been used for more than 24 hours. […]

With `CCOc1ccc(-c2nc(-c3cccc(C(=O)O)n3)cs2)cc1OCC` [Tetomilast, 2-(3,4-diethoxyphenyl)-4-(2-carboxy-6-pyridyl)thiazole] the “Estimated Treatment Effect, change from baseline in FEV1 (tetomilast versus placebo)” value (Day 8/23, 5 min postdose) was 0.02 L, the “Estimated Treatment Effect, change from baseline in FVC (tetomilast versus placebo)” value (Day 8/23, 5 min postdose) was 0.06 L and the “LS Mean change from baseline in FEV1 (repeated measures ANOVA)” value (shortened to “LS Mean change from baseline in FEV1”) (Day 8/23, 5 min postdose) was 0.19 L. For the same compound, the “LS Mean change from baseline in FVC (repeated measures ANOVA)” value (shortened to “LS Mean change from baseline in FVC”) (Day 8/23, 5 min postdose) was 0.31 L, the “Mean (SD) change from baseline in FEV1” value (Day 8/23, 5 min postdose) was 0.19 (0.19) L and the “Mean (SD) change from baseline in FVC” value (Day 8/23, 5 min postdose) was 0.30 (0.28) L. The “Estimated Treatment Effect, change from baseline in FEV1 (tetomilast versus placebo)” value (Day 8/23, 25 min postdose) was 0.06 L, the “Estimated Treatment Effect, change from baseline in FVC (tetomilast versus placebo)” value (Day 8/23, 25 min postdose) was 0.11 L and the “LS Mean change from baseline in FEV1” value (Day 8/23, 25 min postdose) was 0.21 L. The “LS Mean change from baseline in FVC” value (Day 8/23, 25 min postdose) was 0.31 L, the “Mean (SD) change from baseline in FEV1” value (Day 8/23, 25 min postdose) was 0.21 (0.20) L and the “Mean (SD) change from baseline in FVC” value (Day 8/23, 25 min postdose) was 0.31 (0.38) L. For the same compound, the “Estimated Treatment Effect, change from baseline in FEV1 (tetomilast versus placebo)” value (Day 8/23, 35 min postdose) was 0.05 L, the “Estimated Treatment Effect, change from baseline in FVC (tetomilast versus placebo)” value (Day 8/23, 35 min postdose) was 0.09 L and the “LS Mean change from baseline in FEV1” value (Day 8/23, 35 min postdose) was 0.26 L. The “LS Mean change from baseline in FVC” value (Day 8/23, 35 min postdose) was 0.41 L, the “Mean (SD) change from baseline in FEV1” value (Day 8/23, 35 min postdose) was 0.26 (0.18) L and the “Mean (SD) change from baseline in FVC” value (Day 8/23, 35 min postdose) was 0.41 (0.34) L. The “Estimated Treatment Effect, change from baseline in FEV1 (tetomilast versus placebo)” value (Day 8/23, 55 min postdose) was 0.08 L, the “Estimated Treatment Effect, change from baseline in FVC (tetomilast versus placebo)” value (Day 8/23, 55 min postdose) was 0.15 L and the “LS Mean change from baseline in FEV1” value (Day 8/23, 55 min postdose) was 0.28 L. For the same compound, the “LS Mean change from baseline in FVC” value (Day 8/23, 55 min postdose) was 0.39 L, the “Mean (SD) change from baseline in FEV1” value (Day 8/23, 55 min postdose) was 0.28 (0.19) L and the “Mean (SD) change from baseline in FVC” value (Day 8/23, 55 min postdose) was 0.38 (0.31) L. The “Estimated Treatment Effect, change from baseline in FEV1 (tetomilast versus placebo)” value (Day 8/23, 65 min postdose) was 0.08 L, the “Estimated Treatment Effect, change from baseline in FVC (tetomilast versus placebo)” value (Day 8/23, 65 min postdose) was 0.18 L and the “LS Mean change from baseline in FEV1” value (Day 8/23, 65 min postdose) was 0.32 L. For the same compound, the “LS Mean change from baseline in FVC” value (Day 8/23, 65 min postdose) was 0.51 L, the “Mean (SD) change from baseline in FEV1” value (Day 8/23, 65 min postdose) was 0.32 (0.19) L and the “Mean (SD) change from baseline in FVC” value (Day 8/23, 65 min postdose) was 0.52 (0.37) L. For the same compound, the “Estimated Treatment Effect, change from baseline in FEV1 (tetomilast versus placebo)” value (Day 8/23, 85 min postdose) was 0.07 L, the “Estimated Treatment Effect, change from baseline in FVC (tetomilast versus placebo)” value (Day 8/23, 85 min postdose) was 0.13 L and the “LS Mean change from baseline in FEV1” value (Day 8/23, 85 min postdose) was 0.33 L. For the same compound, the “LS Mean change from baseline in FVC” value (Day 8/23, 85 min postdose) was 0.48 L, the “Mean (SD) change from baseline in FEV1” value (Day 8/23, 85 min postdose) was 0.33 (0.19) L and the “Mean (SD) change from baseline in FVC” value (Day 8/23, 85 min postdose) was 0.47 (0.37) L. The “Estimated Treatment Effect, change from baseline in FEV1 (tetomilast versus placebo)” value (Day 8/23, 95 min postdose) was 0.07 L, the “Estimated Treatment Effect, change from baseline in FVC (tetomilast versus placebo)” value (Day 8/23, 95 min postdose) was 0.19 L and the “LS Mean change from baseline in FEV1” value (Day 8/23, 95 min postdose) was 0.36 L. The “LS Mean change from baseline in FVC” value (Day 8/23, 95 min postdose) was 0.55 L, the “Mean (SD) change from baseline in FEV1” value (Day 8/23, 95 min postdose) was 0.36 (0.19) L and the “Mean (SD) change from baseline in FVC” value (Day 8/23, 95 min postdose) was 0.55 (0.40) L. For the same compound, the “Estimated Treatment Effect, change from baseline in FEV1 (tetomilast versus placebo)” value (Day 8/23, 115 min postdose) was 0.07 L, the “Estimated Treatment Effect, change from baseline in FVC (tetomilast versus placebo)” value (Day 8/23, 115 min postdose) was 0.18 L and the “LS Mean change from baseline in FEV1” value (Day 8/23, 115 min postdose) was 0.35 L. For the same compound, the “LS Mean change from baseline in FVC” value (Day 8/23, 115 min postdose) was 0.54 L, the “Mean (SD) change from baseline in FEV1” value (Day 8/23, 115 min postdose) was 0.35 (0.18) L and the “Mean (SD) change from baseline in FVC” value (Day 8/23, 115 min postdose) was 0.53 (0.44) L. The “Estimated Treatment Effect, change from baseline in FEV1 (tetomilast versus placebo)” value (Day 8/23, 175 min postdose) was 0.09 L, the “Estimated Treatment Effect, change from baseline in FVC (tetomilast versus placebo)” value (Day 8/23, 175 min postdose) was 0.15 L and the “LS Mean change from baseline in FEV1” value (Day 8/23, 175 min postdose) was 0.36 L. For the same compound, the “LS Mean change from baseline in FVC” value (Day 8/23, 175 min postdose) was 0.53 L, the “Mean (SD) change from baseline in FEV1” value (Day 8/23, 175 min postdose) was 0.36 (0.21) L and the “Mean (SD) change from baseline in FVC” value (Day 8/23, 175 min postdose) was 0.52 (0.36) L. For the same compound, the “Estimated Treatment Effect, change from baseline in FEV1 (tetomilast versus placebo)” value (Day 8/23, 235 min postdose) was 0.07 L, the “Estimated Treatment Effect, change from baseline in FVC (tetomilast versus placebo)” value (Day 8/23, 235 min postdose) was 0.09 L and the “LS Mean change from baseline in FEV1” value (Day 8/23, 235 min postdose) was 0.34 L. The “LS Mean change from baseline in FVC” value (Day 8/23, 235 min postdose) was 0.42 L, the “Mean (SD) change from baseline in FEV1” value (Day 8/23, 235 min postdose) was 0.34 (0.25) L and the “Mean (SD) change from baseline in FVC” value (Day 8/23, 235 min postdose) was 0.42 (0.48) L. The “Estimated Treatment Effect, change from baseline in FEV1 (tetomilast versus placebo)” value (Day 8/23, 295 min postdose) was 0.05 L, the “Estimated Treatment Effect, change from baseline in FVC (tetomilast versus placebo)” value (Day 8/23, 295 min postdose) was 0.19 L and the “LS Mean change from baseline in FEV1” value (Day 8/23, 295 min postdose) was 0.25 L. For the same compound, the “LS Mean change from baseline in FVC” value (Day 8/23, 295 min postdose) was 0.38 L, the “Mean (SD) change from baseline in FEV1” value (Day 8/23, 295 min postdose) was 0.25 (0.29) L and the “Mean (SD) change from baseline in FVC” value (Day 8/23, 295 min postdose) was 0.37 (0.49) L. For the same compound, the “Estimated Treatment Effect, change from baseline in FEV1 (tetomilast versus placebo)” value (Day 8/23, 355 min postdose) was 0.13 L, the “Estimated Treatment Effect, change from baseline in FVC (tetomilast versus placebo)” value (Day 8/23, 355 min postdose) was 0.24 L and the “LS Mean change from baseline in FEV1” value (Day 8/23, 355 min postdose) was 0.25 L. For the same compound, the “LS Mean change from baseline in FVC” value (Day 8/23, 355 min postdose) was 0.34 L, the “Mean (SD) change from baseline in FEV1” value (Day 8/23, 355 min postdose) was 0.25 (0.24) L and the “Mean (SD) change from baseline in FVC” value (Day 8/23, 355 min postdose) was 0.34 (0.39) L. The “effect on inhaled albuterol response (FEV1, FVC), exploratory repeated measures analysis” value (inhaled albuterol combined with tetomilast versus inhaled albuterol alone, Day 8/23) was “possible potentiation of the effect of inhaled albuterol” and the “FEV1 steady-state (predose) baseline value, Mean (SD)” value (predose Day 8/23, on tetomilast 50 mg QD, prior to inhaled albuterol) was 1.40 (0.61) L.
